Experimental data: publication PMC6018403 (Frontiers in Pharmacology, 2018)
Like-named read-outs stand apart in the source and are kept apart here. Each block holds one molecule with its values, some of them ahead of it.

Test: Multi-component pharmacokinetic study of GQD, GQD-GC and single herb extracts in rats (plasma, LC/MS/MS)
Type: in vivo, Sprague-Dawley rats
Procedure: Male Sprague-Dawley rats (220–250 g) were used for PK study, and the details were described in Supplemental Data. All procedures were in accordance with the National Institutes of Health Guide for the Care and Use of Laboratory Animals.
For PK study of GQD and its component herbs, rats were randomly divided into six groups (n = 10 for each group) before oral administration.
All blood samples were immediately centrifuged at 6,000 rpm (4°C) for 20 min to obtain plasma. The plasma samples were stored at −80°C.
A Finnigan TSQ Quantum triple quadrupole mass spectrometer was connected to a Surveyor HPLC via ESI interface (ThermoFisher). High purity nitrogen was used as the sheath and auxiliary gas; Ultra-high purity argon was used as the collision gas (1.5 mTorr). Q1 and Q3 quadrupoles were set at unit resolution. […] The column temperature was 40°C. The mobile phase consisted of acetonitrile containing 2% (v/v) methanol (A) and water containing 0.1% (v/v) formic acid (B). […] An aliquot of 5 μL was injected for analysis. UV spectra were obtained by scanning from 200 to 400 nm. The mass spectrometer was operated in the (+)-ESI mode. The optimized parameters were as follows: sheath gas (N2), 50 arb; auxiliary gas (N2), 5 arb; spray voltage, 4.0 kV; capillary temperature, 330°C; collision energy, see Table S1. Analytes were detected in the selected reaction monitoring (SRM) mode. Data were processed by Xcalibur 2.0.7 software (ThermoFisher).
LC/MS/MS calibration and quantitation data were processed with Xcalibur 2.0.7 software (ThermoFisher). The maximal plasma concentrations (Cmax) and their time of occurrence (Tmax) were obtained directly from the measured data. Other pharmacokinetic parameters were calculated by non-compartment or compartment models using WinNonlin® software (v6.1, Pharsight). Unless otherwise stated, results were expressed as the mean ± SD. Statistical significance in differences of the means was determined by Student's t–test, with a significance level of P < 0.05.
Herbal materials and extracts.
The four component herbs, Puerariae Lobatae Radix (Ge-Gen, GG), Scutellariae Radix (Huang-Qin, HQ), Coptidis Rhizoma (Huang-Lian, HL), and Glycyrrhizae Radix et Rhizoma Praeparata cum Melle (Gan-Cao, GC) were purchased from Tianheng Pharmacy. GQD was prepared by decocting the four component herbs […]
pre-extraction of Ge-Gen using 200 mL of water for 0.5 h. The decoctions were combined, filtered, and concentrated in vacuum at 50 °C. GQD-GC was prepared using the same procedure, except that Gan-Cao was removed from the formula. Final concentration of the GQD-GC extract was equivalent to 1.0 g of the crude drugs per mL. For single herb extracts, the herbs were decocted in 8-fold volume of water for […]
Final concentrations of the extracts were 1.0 g/mL for Ge-Gen, and 0.5 g/mL for Huang-Qin, Huang-Lian and […]
For pharmacokinetic study, Male Sprague-Dawley rats (220-250 g) were obtained from the Laboratory Animal Center of Peking University Health Science Center. The […]
The rats had free access to tap water and soy-free custom diet (Ke’ao Xieli Co.). All procedures were in accordance with the National Institutes of Health Guide for the Care and Use of Laboratory Animals […]
Experimental details for the PK study
1. Preparation of internal standard solution, calibration standard solutions, and quality control solutions […]
internal standard solution. Reference standard compounds were dissolved in the internal standard solution to prepare individual stock solutions (1.0 mg/mL). These […]
each compound. The standard solution was then serially diluted to obtain calibration […]
Quality control stock solutions were prepared at three concentration levels as high QC (HQC), middle QC (MQC), and low QC (LQC), based on linear ranges of the analytes.
2.1. Sample preparation for pharmacokinetic study
The calibration standard and quality control solutions for pharmacokinetic study were […]

[1] = male, Sprague-Dawley, rat, in vivo, po, 2.36 g/kg
[2] = male, Sprague-Dawley, rat, in vivo, po, 2.36 g/kg, AUClast
[3] = male, Sprague-Dawley, rat, in vivo, po, 18.9 g/kg
[4] = male, Sprague-Dawley, rat, in vivo, po, 18.9 g/kg, AUClast
[5] = male, Sprague-Dawley, rat, in vivo, po, 3.54 g/kg
[6] = male, Sprague-Dawley, rat, in vivo, po, 16.5 g/kg

Cmax [1]: 8.98 ± 2.49 ng/mL
Tmax [1]: 3.7 ± 1.41 h
half-life [1]: 138 ± 407 min
AUC(0-t) [2]: 81 ± 27.7 ng·h/mL
Cmax [3]: 10.3 ± 6.38 ng/mL
Tmax [3]: 3.89 ± 1.41 h
half-life [3]: 152 ± 8.4 min
AUC(0-t) [4]: 102 ± 53.3 ng·h/mL
SMILES: CC1(C(=O)O)CCC2(C)CCC3(C)C(=CC(=O)C4C5(C)CCC(OC6OC(C(=O)O)C(O)C(O)C6OC6OC(C(=O)O)C(O)C(O)C6O)C(C)(CO)C5CCC43C)C2C1 (stereo not shown) [Compound 35, licorice saponin G2]

increase of AUClast in GQD group compared with the Huang-Lian group (male, Sprague-Dawley, rat, in vivo, po): 49.1%
Cmax [5]: 5.33 ± 1.35 ng/mL
Tmax [5]: 0.68 ± 0.65 h
half-life [5]: 230 ± 80.4 min
AUC(0-t) (male, Sprague-Dawley, rat, in vivo, po, 3.54 g/kg, AUClast): 73.2 ± 21.2 ng·h/mL
Cmax [6]: 8.39 ± 1.3 ng/mL
Tmax [6]: 0.69 ± 0.76 h
half-life [6]: 232 ± 16.2 min
AUC(0-t) (male, Sprague-Dawley, rat, in vivo, po, 16.5 g/kg, AUClast): 167 ± 24.4 ng·h/mL
AUClast [3]: 109.2 ± 73.23 ng·h/mL
Cmax [3]: 6.56 ± 4.03 ng/mL
Tmax [3]: 0.74 ± 0.32 h
half-life [3]: 312 ± 82.2 min
AUC(0-t) [4]: > 100 ng·h/mL
SMILES: c1c2c(cc3c1OCO3)-c1cc3ccc4c(c3c[n+]1CC2)OCO4 [Compound 21, coptisine]

SMILES: O=C(O)[C@H]1O[C@@H](Oc2cc3oc(-c4ccccc4)cc(=O)c3c(O)c2O)[C@H](O)[C@@H](O)[C@@H]1O [Compound 17, baicalin]
AUC(0-t) (male, Sprague-Dawley, rat, plasma, po, 3.54 g/kg, HQ (Huang-Qin) group: rats, oral extract 3.54 g/kg, plasma, read-out: AUClast): 52600 ± 35500 ng·h/mL
AUC(0-t) (male, Sprague-Dawley, rat, plasma, po, 3.54 g/kg, Huang-Qin group: rats, oral 3.54 g/kg, plasma, read-out: AUClast): 52600 ± 35500 ng·h/mL
AUC(0-t) (male, Sprague-Dawley, rat, plasma, po, 16.5 g/kg, GQD-GC group (GQD without Gan-Cao): rats, oral 16.5 g/kg, plasma, read-out: AUClast): 39600 ± 2610 ng·h/mL
AUC(0-t) (male, Sprague-Dawley, rat, plasma, po, 18.9 g/kg, GQD group: rats, oral GQD extract 18.9 g/kg, plasma, read-out: AUClast): 22300 ± 11200 ng·h/mL
Cmax (male, Sprague-Dawley, rat, GQD group: rats, oral GQD extract 18.9 g/kg, plasma, read-out: Cmax): 1180 ± 870 ng/mL
half-life (male, Sprague-Dawley, rat, GQD group: rats, oral GQD extract 18.9 g/kg, plasma, read-out: T1/2 (converted)): 288 ± 196 min
Tmax (male, Sprague-Dawley, rat, GQD group: rats, oral GQD extract 18.9 g/kg, plasma, read-out: Tmax): 7.29 ± 1.38 h
Cmax (male, Sprague-Dawley, rat, GQD-GC group (GQD without Gan-Cao): rats, oral 16.5 g/kg, plasma, read-out: Cmax): 1890 ± 988 ng/mL
half-life (male, Sprague-Dawley, rat, GQD-GC group (GQD without Gan-Cao): rats, oral 16.5 g/kg, plasma, read-out: T1/2 (converted)): 320 ± 153 min
Tmax (male, Sprague-Dawley, rat, GQD-GC group (GQD without Gan-Cao): rats, oral 16.5 g/kg, plasma, read-out: Tmax): 7.71 ± 1.34 h
Cmax (male, Sprague-Dawley, rat, HQ (Huang-Qin) group: rats, oral extract 3.54 g/kg, plasma, read-out: Cmax): 4040 ± 584 ng/mL
half-life (male, Sprague-Dawley, rat, HQ (Huang-Qin) group: rats, oral extract 3.54 g/kg, plasma, read-out: T1/2 (converted)): 199 ± 64.8 min
Tmax (male, Sprague-Dawley, rat, HQ (Huang-Qin) group: rats, oral extract 3.54 g/kg, plasma, read-out: Tmax): 7.79 ± 0.99 h
decrease of Cmax in the GQD group compared with the Huang-Qin group (rats, oral, GQD vs Huang-Qin): at least 30%

Cmax [1]: 18.6 ± 7.53 ng/mL
T1/2 [1]: 7.84 ± 0.38 h
Tmax [1]: 1.34 ± 3 h
AUC(0-t) [2]: 237 ± 92.4 ng·h/mL
AUClast [3]: 416.94 ± 210.31 ng·h/mL
Cmax [3]: 20.8 ± 1.86 ng/mL
Tmax [3]: 2.5 ± 4.76 h
half-life [3]: 723 ± 69.6 min
AUC(0-t) [4]: > 300 ng·h/mL
plasma concentrations, effect of GQD compared with Gan-Cao (rat, in vivo, po): improved
SMILES: O=C1C[C@@H](c2ccc(O[C@@H]3O[C@H](CO)[C@@H](O)[C@H](O)[C@H]3O)cc2)Oc2cc(O)ccc21 [Compound 26, liquiritin]
